Test results from ChEMBL document CHEMBL1124036 (J Med Chem, 1988).

Columns and labels:
[1] = system: HEp-2; assay: Concentration required to produce 50% reduction in cloning of H.Ep.No.2 cells by 50%; type: functional, cell-based; details: Homo sapiens
[2] = system: L1210; assay: Concentration required to produce 50% reduction in the rate of proliferation of L1210 cells; type: functional, cell-based; details: Mus musculus

Structure (SMILES)	IC50 [1] [µM]	IC50 [2] [µM]
[N-]=[N+]=N[C@H]1C(n2cnc3c(N)nc(F)nc32)O[C@H](CO)[C@@H]1O (stereo partly specified)	29	100
[N-]=[N+]=N[C@H]1C(n2cnc3c(N)nc(Cl)nc32)O[C@H](CO)[C@@H]1O (stereo partly specified)	> 120	> 120
Nc1nc(Cl)nc2c1ncn2C1O[C@H](CO)[C@H](O)[C@H]1I (stereo partly specified)	> 100	> 100
Nc1nc(Cl)nc2c1ncn2C1O[C@H](CO)[C@H](O)[C@H]1Cl (stereo partly specified)	> 120	> 120
Nc1nc(F)nc2c1ncn2C1O[C@H](CO)[C@H](O)[C@H]1Cl (stereo partly specified)	100	60
Nc1nc(Cl)nc2c1ncn2C1O[C@H](CO)[C@H](O)[C@H]1Br (stereo partly specified)	> 110	> 110
Nc1nc(F)nc2c1ncn2C1O[C@H](CO)[C@H](O)[C@H]1N (stereo partly specified)	12	120
Nc1nc(Cl)nc2c1ncn2C1O[C@H](CO)[C@H](O)[C@H]1N (stereo partly specified)	80	> 120
